Test results as given in ChEMBL document CHEMBL5291721, “A preclinical secondary pharmacology resource illuminates target-adverse drug reaction associations of marketed drugs” (Nat Commun, 2023).
Where a SMILES comes first, the peptide text is derived from it.

Columns and labels:
[1] = biological target: Beta-3 adrenergic receptor (Homo sapiens, UniProt P13945)
[2] = biological target: T1, Gastric inhibitory polypeptide receptor (Homo sapiens, UniProt P48546)
T1 sequence (P48546 whole entry): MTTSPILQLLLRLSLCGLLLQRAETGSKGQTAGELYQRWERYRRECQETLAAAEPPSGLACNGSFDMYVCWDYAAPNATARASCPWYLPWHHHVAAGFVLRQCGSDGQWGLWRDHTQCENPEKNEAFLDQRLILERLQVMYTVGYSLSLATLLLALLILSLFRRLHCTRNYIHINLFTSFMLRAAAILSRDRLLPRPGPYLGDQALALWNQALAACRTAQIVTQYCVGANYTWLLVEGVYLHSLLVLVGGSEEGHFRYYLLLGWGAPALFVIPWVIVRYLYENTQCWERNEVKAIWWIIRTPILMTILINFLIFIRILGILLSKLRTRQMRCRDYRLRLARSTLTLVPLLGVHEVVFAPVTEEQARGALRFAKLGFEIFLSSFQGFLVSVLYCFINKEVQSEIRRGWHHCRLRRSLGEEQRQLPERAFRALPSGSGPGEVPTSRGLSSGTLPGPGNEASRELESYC

[3] = biological target: T2, Androgen receptor (Rattus norvegicus, UniProt P15207); format: functional
T2 sequence (P15207 whole entry): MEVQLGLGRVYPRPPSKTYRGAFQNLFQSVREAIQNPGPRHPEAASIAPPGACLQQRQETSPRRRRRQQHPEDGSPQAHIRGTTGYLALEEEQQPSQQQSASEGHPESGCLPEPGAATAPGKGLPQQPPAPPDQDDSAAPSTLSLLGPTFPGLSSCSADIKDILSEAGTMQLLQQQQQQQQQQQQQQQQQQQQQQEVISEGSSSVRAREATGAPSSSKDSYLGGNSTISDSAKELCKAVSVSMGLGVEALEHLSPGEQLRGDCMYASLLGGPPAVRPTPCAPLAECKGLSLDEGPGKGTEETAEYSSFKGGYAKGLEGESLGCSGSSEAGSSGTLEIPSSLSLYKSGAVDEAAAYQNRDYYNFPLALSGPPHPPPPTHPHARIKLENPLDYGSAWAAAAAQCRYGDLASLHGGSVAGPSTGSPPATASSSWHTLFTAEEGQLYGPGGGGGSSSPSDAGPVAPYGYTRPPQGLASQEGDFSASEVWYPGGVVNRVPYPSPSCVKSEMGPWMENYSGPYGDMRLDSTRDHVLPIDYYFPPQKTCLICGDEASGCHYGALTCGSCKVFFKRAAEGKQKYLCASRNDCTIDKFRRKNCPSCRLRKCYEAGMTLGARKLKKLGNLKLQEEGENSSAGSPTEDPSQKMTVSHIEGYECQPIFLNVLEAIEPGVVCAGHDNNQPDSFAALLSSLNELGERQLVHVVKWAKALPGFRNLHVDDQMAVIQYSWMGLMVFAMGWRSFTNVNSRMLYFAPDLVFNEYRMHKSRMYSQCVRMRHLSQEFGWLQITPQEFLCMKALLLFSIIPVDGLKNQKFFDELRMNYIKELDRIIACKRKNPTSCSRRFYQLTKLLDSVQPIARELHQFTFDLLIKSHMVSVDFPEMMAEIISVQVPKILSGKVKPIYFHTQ

[4] = biological target: Sodium channel protein type 5 subunit alpha (Homo sapiens, UniProt Q14524); format: functional, cell-based
Chain of Sodium channel protein type 5 subunit alpha (Q14524 whole entry): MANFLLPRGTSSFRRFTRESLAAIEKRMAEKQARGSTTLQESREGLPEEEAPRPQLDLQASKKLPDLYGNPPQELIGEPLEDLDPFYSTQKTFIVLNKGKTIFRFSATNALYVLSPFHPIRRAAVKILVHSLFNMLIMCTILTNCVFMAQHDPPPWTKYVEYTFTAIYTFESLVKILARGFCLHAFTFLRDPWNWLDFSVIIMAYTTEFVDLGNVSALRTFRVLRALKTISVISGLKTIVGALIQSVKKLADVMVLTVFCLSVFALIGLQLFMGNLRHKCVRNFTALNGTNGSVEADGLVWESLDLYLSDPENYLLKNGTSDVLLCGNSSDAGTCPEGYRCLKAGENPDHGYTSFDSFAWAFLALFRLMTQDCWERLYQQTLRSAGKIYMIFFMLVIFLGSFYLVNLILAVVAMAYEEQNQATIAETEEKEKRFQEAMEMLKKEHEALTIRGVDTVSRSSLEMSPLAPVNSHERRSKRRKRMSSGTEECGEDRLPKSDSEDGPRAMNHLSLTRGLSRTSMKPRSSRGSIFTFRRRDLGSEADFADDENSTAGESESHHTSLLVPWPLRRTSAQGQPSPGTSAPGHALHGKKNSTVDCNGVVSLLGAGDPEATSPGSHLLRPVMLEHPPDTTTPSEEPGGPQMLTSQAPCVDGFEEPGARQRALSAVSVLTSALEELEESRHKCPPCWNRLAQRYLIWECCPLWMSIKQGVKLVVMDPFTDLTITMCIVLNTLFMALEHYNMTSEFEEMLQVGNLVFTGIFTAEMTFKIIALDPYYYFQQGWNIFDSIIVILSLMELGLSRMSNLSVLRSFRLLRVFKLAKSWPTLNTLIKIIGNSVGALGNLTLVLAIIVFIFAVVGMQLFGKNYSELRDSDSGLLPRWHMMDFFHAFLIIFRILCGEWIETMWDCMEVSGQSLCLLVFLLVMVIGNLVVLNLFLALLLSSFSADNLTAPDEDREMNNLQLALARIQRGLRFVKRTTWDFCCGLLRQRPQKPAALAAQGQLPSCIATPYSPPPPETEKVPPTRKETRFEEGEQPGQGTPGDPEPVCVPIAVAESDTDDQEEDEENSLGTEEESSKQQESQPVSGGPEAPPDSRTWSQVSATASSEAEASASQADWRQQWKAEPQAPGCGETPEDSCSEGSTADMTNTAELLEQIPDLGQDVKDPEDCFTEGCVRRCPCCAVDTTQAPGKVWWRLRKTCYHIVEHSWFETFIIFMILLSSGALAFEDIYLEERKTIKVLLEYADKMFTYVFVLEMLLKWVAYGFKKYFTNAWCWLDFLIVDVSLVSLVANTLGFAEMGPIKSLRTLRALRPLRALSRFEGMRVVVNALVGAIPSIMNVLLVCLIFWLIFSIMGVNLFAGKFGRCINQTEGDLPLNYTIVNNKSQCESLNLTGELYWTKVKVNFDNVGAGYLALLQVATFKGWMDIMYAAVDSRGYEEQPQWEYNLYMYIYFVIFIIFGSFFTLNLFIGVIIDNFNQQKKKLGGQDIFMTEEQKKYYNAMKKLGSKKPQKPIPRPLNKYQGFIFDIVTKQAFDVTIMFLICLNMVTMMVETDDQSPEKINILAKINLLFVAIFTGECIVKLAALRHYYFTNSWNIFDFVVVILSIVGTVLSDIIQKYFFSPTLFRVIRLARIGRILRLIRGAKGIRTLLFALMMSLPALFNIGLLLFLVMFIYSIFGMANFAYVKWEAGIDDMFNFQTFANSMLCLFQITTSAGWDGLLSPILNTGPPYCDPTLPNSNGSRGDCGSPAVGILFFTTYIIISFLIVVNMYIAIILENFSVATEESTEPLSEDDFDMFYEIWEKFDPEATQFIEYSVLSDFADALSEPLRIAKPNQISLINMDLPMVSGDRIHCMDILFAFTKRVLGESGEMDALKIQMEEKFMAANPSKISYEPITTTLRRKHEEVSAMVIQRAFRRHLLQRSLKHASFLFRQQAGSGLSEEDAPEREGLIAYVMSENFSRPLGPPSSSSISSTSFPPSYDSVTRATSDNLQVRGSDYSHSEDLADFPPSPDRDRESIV

[5] = biological target: Histamine H1 receptor (Homo sapiens, UniProt P35367); format: functional, cell-based
Chain of Histamine H1 receptor (P35367 whole entry): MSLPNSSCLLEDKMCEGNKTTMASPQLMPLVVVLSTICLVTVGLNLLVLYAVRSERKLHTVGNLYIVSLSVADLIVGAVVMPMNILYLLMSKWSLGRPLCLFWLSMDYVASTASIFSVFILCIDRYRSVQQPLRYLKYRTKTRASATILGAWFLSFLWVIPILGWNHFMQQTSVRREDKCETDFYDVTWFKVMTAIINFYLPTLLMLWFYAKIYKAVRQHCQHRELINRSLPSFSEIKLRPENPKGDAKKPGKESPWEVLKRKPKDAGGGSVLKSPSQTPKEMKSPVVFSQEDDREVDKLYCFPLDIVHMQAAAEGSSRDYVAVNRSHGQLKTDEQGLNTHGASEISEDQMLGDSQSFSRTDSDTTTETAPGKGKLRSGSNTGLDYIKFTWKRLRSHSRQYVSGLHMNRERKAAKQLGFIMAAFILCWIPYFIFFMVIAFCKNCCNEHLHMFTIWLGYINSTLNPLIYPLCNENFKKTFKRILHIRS

[6] = biological target: 5-hydroxytryptamine receptor 2A (Homo sapiens, UniProt P28223)
Chain of 5-hydroxytryptamine receptor 2A (P28223 whole entry): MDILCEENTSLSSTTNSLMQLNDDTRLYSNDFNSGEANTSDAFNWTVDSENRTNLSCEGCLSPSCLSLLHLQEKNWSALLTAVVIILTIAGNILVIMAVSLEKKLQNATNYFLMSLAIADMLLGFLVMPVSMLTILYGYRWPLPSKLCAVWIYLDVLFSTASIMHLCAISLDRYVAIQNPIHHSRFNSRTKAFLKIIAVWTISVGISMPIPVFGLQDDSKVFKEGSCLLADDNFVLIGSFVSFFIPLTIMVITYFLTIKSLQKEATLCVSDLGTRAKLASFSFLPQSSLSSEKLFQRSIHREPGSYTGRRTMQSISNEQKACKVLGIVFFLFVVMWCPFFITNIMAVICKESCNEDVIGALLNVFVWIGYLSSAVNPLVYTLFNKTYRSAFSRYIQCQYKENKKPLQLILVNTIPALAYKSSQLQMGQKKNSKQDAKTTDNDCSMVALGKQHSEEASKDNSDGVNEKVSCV

[7] = biological target: T3, D(4) dopamine receptor (Homo sapiens, UniProt P21917)
T3 sequence (P21917 whole entry): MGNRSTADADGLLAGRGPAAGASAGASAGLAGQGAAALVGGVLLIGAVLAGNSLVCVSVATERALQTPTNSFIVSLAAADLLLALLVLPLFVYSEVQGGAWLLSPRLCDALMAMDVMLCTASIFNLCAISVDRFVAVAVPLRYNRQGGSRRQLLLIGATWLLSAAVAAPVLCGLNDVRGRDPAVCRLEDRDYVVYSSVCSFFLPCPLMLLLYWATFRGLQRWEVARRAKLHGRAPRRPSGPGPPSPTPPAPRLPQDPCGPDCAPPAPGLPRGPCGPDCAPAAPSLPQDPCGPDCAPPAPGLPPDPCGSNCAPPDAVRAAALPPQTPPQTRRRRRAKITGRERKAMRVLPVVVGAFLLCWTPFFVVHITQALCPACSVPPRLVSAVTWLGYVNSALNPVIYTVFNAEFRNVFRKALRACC

[8] = biological target: T4, Alpha-1A adrenergic receptor (Homo sapiens, UniProt P35348)
T4 sequence (P35348 whole entry): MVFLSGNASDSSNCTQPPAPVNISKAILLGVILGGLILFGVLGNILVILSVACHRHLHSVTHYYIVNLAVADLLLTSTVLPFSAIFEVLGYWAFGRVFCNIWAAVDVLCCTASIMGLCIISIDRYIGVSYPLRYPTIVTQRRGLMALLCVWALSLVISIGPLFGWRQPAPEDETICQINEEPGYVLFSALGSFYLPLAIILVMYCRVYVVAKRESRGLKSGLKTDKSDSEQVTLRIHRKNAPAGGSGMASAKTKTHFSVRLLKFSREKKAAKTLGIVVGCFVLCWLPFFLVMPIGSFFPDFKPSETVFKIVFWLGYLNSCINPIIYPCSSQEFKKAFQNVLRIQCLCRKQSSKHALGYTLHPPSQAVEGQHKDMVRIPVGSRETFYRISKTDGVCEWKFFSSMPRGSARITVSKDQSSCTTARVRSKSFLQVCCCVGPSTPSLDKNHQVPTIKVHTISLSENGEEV

[9] = biological target: T5, Peroxisome proliferator-activated receptor gamma (Homo sapiens, UniProt P37231); format: functional
T5 sequence (P37231 whole entry): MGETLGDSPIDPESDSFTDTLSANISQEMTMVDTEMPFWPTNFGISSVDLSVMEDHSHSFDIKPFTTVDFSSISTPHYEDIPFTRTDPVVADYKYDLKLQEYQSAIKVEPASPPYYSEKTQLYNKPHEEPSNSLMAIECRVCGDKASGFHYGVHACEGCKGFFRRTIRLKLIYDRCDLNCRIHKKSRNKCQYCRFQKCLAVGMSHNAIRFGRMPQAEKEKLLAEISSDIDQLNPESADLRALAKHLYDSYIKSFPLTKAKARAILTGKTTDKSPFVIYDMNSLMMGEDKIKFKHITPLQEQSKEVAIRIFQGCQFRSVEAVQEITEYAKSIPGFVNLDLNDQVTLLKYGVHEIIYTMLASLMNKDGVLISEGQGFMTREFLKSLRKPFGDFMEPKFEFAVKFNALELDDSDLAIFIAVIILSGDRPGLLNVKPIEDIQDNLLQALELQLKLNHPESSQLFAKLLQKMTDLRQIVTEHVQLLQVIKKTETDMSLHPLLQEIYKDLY
Also: assay procedure not described here.

Chain of Beta-3 adrenergic receptor (P13945 whole entry): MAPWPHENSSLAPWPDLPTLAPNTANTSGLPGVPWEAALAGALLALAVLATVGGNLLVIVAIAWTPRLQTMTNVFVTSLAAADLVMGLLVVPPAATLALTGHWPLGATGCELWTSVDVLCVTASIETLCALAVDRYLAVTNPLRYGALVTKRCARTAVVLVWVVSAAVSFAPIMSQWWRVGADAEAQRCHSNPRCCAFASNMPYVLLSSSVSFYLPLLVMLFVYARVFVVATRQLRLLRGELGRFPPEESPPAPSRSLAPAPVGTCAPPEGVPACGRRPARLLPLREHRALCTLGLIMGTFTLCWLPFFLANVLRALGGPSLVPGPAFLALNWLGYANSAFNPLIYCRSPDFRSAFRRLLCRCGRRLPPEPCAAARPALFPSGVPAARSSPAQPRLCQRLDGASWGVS

Row | SMILES | AC50 [1] [µM] | AC50 [2] [µM] | AC50 [3] [µM] | AC50 [9] [µM] | further results
1 | CC1=C(CC(=O)O)c2cc(F)ccc2/C1=C\c1ccc([S+](C)[O-])cc1 (configuration not stated) | > 30 | > 30 |  |  | 
2 | O=C(O)c1ccc2nc(-c3cc(Cl)cc(Cl)c3)oc2c1 |  |  | > 30 |  | AC50 [4]: > 30 µM
3 | NS(=O)(=O)c1ccc(N2CCCCS2(=O)=O)cc1 |  |  | > 30 |  | AC50 [5]: > 30 µM
4 | O=C(O[C@H]1C[N+]2(CCCOc3ccccc3)CCC1CC2)C(O)(c1cccs1)c1cccs1 [ACLIDINIUM BROMIDE] |  | > 30 |  |  | AC50 [6]: > 10 µM; AC50 [7]: > 10 µM; AC50 [8]: 5.1 µM
5 | C[C@H](N)C(=O)N[C@@H](CCC(N)=O)C(=O)O [ALANYL GLUTAMINE] (H-Ala-Gln-OH) |  |  | > 30 |  | 
6 | Cc1nnc2n1-c1ccc(Cl)cc1C(c1ccccc1)=NC2 [ALPRAZOLAM] | > 30 | > 30 |  |  | AC50 [7]: > 10 µM
7 | COc1ccc(-n2nc(C(N)=O)c3c2C(=O)N(c2ccc(N4CCCCC4=O)cc2)CC3)cc1 [APIXABAN] |  |  | > 30 | > 30 | AC50 [4]: > 50 µM
8 | CCN(CC)CCCN(c1ccccc1)C1Cc2ccccc2C1 [APRINDINE] |  |  |  | > 30 | AC50 [5]: > 30 µM
9 | CC(NC(C)(C)C)C(=O)c1cccc(Cl)c1 (configuration not stated) [BUPROPION] | > 30 | > 30 |  |  | AC50 [4]: > 30 µM; AC50 [7]: > 10 µM; AC50 [8]: > 10 µM
10 | CC(=O)OCC1=C(C(=O)O)N2C(=O)[C@@H](NC(=O)Cc3cccs3)[C@H]2SC1 [CEPHALOTHIN] |  |  |  | > 30 | 
11 | CC1=C(C(=O)O)N2C(=O)[C@@H](NC(=O)[C@H](N)C3=CCC=CC3)[C@H]2SC1 [CEPHRADINE] |  |  |  | > 30 | 
12 | COc1ccc(C(Cl)=C(c2ccc(OC)cc2)c2ccc(OC)cc2)cc1 [CHLOROTRIANISENE] |  |  |  |  | AC50 [5]: > 30 µM
13 | Oc1cc(O)c2c(c1)O[C@H](c1ccc(O)c(O)c1)[C@@H](O)C2 [CIANIDANOL] | > 30 | > 30 |  |  | AC50 [6]: > 10 µM; AC50 [5]: > 30 µM
14 | CCCO[C@H]1[C@@H]([C@@H](COCc2ccc(Cl)cc2)OCc2ccc(Cl)cc2)OC(OCC)[C@@H]1O (some centres not stated) [CLOBENOSIDE] |  |  | > 30 |  | 
15 | O=C1CN=C(c2ccccc2Cl)c2cc([N+](=O)[O-])ccc2N1 [CLONAZEPAM] | > 30 | > 30 |  |  | AC50 [7]: > 10 µM; AC50 [8]: > 10 µM
16 | C=C(c1ccccc1OCc1cccc(Cl)c1)n1ccnc1 [CROCONAZOLE] |  |  |  |  | AC50 [6]: 1.11 µM
17 | CCCCCCOC(=O)NC(=N)c1ccc(NCc2nc3cc(C(=O)N(CCC(=O)OCC)c4ccccn4)ccc3n2C)cc1 [DABIGATRAN ETEXILATE] |  |  |  | > 30 | AC50 [4]: 3 µM
18 | CC(=O)Oc1cccc2c1C(=O)c1c(OC(C)=O)cc(C(=O)O)cc1C2=O [DIACEREIN] |  |  | > 10 |  | 

Row | SMILES | AC50 [1] [µM] | AC50 [2] [µM] | AC50 [3] [µM] | AC50 [9] [µM] | further results
19 | CCN(CC)C(C)C(=O)c1ccccc1 (configuration not stated) [DIETHYLPROPION] | > 30 | > 30 |  |  | 
20 | OCCN(CCO)c1nc(N2CCCCC2)c2nc(N(CCO)CCO)nc(N3CCCCC3)c2n1 [DIPYRIDAMOLE] | > 30 |  |  |  | 
21 | Cc1cnc(Nc2ccc(OCCN3CCCC3)cc2)nc1Nc1cccc(S(=O)(=O)NC(C)(C)C)c1 [FEDRATINIB] |  |  |  |  | AC50 [4]: 7.7 µM; AC50 [6]: 3.12 µM
22 | CCOC(=O)C1=C(C)NC(C)=C(C(=O)OC)C1c1cccc(Cl)c1Cl (configuration not stated) [FELODIPINE] | 10.4 | > 30 |  |  | AC50 [7]: > 10 µM; AC50 [8]: > 10 µM
23 | CC(=O)OCC(=O)[C@@]1(O)CC[C@H]2[C@@H]3CCC4=CC(=O)CC[C@]4(C)[C@@]3(F)[C@@H](O)C[C@@]21C [FLUDROCORTISONE ACETATE] |  |  | > 30 |  | 
24 | Cc1ccc(S(=O)(=O)NC(=O)N[C@H]2[C@H]3CC[C@@](C)([C@H]2O)C3(C)C)cc1 [GLIBORNURIDE] |  |  | > 30 |  | 
25 | CN1C2CCCC1CC(NC(=O)c1nn(C)c3ccccc13)C2 (configuration not stated) [GRANISETRON] | > 30 | > 30 |  |  | AC50 [4]: > 30 µM; AC50 [7]: > 10 µM; AC50 [8]: > 10 µM
26 | CCC(=O)O[C@H](CC(=O)O)C[N+](C)(C)C [LEVOCARNITINE PROPIONATE] |  |  | > 30 | > 30 | AC50 [5]: > 30 µM
27 | CCN(CC)CC(=O)Nc1c(C)cccc1C [LIDOCAINE] |  | > 30 |  |  | 
28 | O=C(O)c1nn(Cc2ccc(Cl)cc2Cl)c2ccccc12 [LONIDAMINE] |  |  | > 30 | > 30 | AC50 [5]: > 30 µM
29 | COC(=O)c1ccc2c(c1)NC(=O)/C2=C(\Nc1ccc(N(C)C(=O)CN2CCN(C)CC2)cc1)c1ccccc1 [NINTEDANIB] |  |  |  | > 30 | AC50 [4]: 13 µM
30 | CC1NCCOC1c1ccccc1 (configuration not stated) [PHENMETRAZINE] | > 30 | > 30 |  |  | AC50 [6]: > 10 µM; AC50 [5]: > 30 µM
31 | CC(C)(N)Cc1ccccc1 [PHENTERMINE] | > 30 | > 30 |  |  | AC50 [6]: > 10 µM
32 | CS(=O)(=O)NC(=O)CCC/C=C\C[C@H]1C(=O)C[C@@H](O)[C@@H]1/C=C/[C@@H](O)COc1ccccc1 [SULPROSTONE] |  |  |  | > 30 | AC50 [5]: > 30 µM
33 | CCCCOC(=O)C(=O)Nc1cccc(-c2nnn[nH]2)c1 [TAZANOLAST] |  |  | > 30 |  | 
34 | CCCCC[C@H](O)CC[C@@H]1[C@H]2Cc3cccc(OCC(=O)O)c3C[C@H]2C[C@H]1O [TREPROSTINIL] |  |  | > 30 | > 30 | 
35 | CN(C)CCOCC(=O)NC12CC3CC(CC(C3)C1)C2 [TROMANTADINE] |  |  | > 30 |  | 
36 | CCCCCCCC(=O)CC[C@@H]1[C@@H](C/C=C\CCCC(=O)O)[C@@H](O)C[C@H]1O [UNOPROSTONE] |  |  | > 30 | > 30 | AC50 [4]: > 50 µM; AC50 [5]: > 30 µM
